Among the data in patent US12559529B2, “NPY2 receptor agonists” (Boehringer Ingelheim International GmbH, priority 2019, dated 2026) are Ki values, retold here.

pKi: −log10 of the molar value. *1 amine or outer side, *2 acyl side, *3 side chain or, on linkers, in order; H or OH if unused. Where a SMILES comes first, the peptide text is derived from it. Side-chain parts run from the residue outwards. The star is where a group is joined. C18 diacid = O=C(O)CCCCCCCCCCCCCCCCC(=O)*; γGlu = O=C(O)[C@H](CCC(=O)[*:2])N[*:1]; Isovaleryl = CC(C)CC(=O)*; AEEA = NCCOCCOCC(=O)O

In this experiment the target is T1, Human Neuropeptide Y2 Receptor (Homo sapiens, UniProt P49146).
T1 construct: purchased CHEMICON HTS066M
T1 sequence (P49146 1-381): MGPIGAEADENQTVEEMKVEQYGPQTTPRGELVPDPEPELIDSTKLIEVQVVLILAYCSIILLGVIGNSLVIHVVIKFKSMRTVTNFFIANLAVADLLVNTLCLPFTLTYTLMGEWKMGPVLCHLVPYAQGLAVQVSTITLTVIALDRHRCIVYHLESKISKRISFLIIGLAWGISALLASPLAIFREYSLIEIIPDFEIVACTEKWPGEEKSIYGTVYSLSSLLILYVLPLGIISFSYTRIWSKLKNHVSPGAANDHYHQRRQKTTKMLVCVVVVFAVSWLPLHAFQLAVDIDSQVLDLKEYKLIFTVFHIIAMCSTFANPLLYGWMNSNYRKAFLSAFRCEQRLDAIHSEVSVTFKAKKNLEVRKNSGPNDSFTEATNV
Put plainly: Radioligand binding competition assay (RLB). The settings on record: Table 3; human 125I-PYY (1-36) 0.02 nM, Y2 receptor membranes; read-out: Ki. The essentials: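 Competition binding on human Y2 receptor membranes, 0.5 μg protein/well, in 50 mM HEPES, 5 mM MgCl2, 1 mM CaCl2, pH 7.4, 0.2% ovalbumin; peptides diluted from 1 mM DMSO stocks.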
A word on the pKi: it is the negative decadic logarithm of the Ki, by convention in mol/L. With `CC(C)CC(=O)N[C@@H](C)C(=O)N1CCC[C@H]1C(=O)N[C@@H](CCC(=O)O)C(=O)N[C@@H](CCCCNC(=O)COCCOCCNC(=O)COCCOCCNC(=O)CC[C@H](NC(=O)CCCCCCCCCCCCCCCCC(=O)O)C(=O)O)C(=O)N1CCC[C@H]1C(=O)N[C@@H](CCC(=O)O)C(=O)N[C@@H](CCC(=O)O)C(=O)N[C@@H](CC(=O)O)C(=O)N[C@@H](C)C(=O)N[C@@H](CO)C(=O)N1CCC[C@H]1C(=O)N[C@@H](CCC(=O)O)C(=O)N[C@@H](CCC(=O)O)C(=O)N[C@@H](CC(C)C)C(=O)N[C@@H](CCC(N)=O)C(=O)N[C@@H](CCCNC(=N)N)C(=O)N[C@@H](Cc1ccc(O)cc1)C(=O)N[C@@H](Cc1ccc(O)cc1)C(=O)N[C@H](C(=O)N[C@@H](CO)C(=O)N[C@@H](CC(C)C)C(=O)N[C@@H](CCCNC(=N)N)C(=O)N[C@@H](C)C(=O)N[C@@H](Cc1ccc(O)cc1)C(=O)N[C@@H](Cc1ccc(O)cc1)C(=O)N[C@@H](CC(N)=O)C(=O)N[C@@H](Cc1c[nH]c2ccccc12)C(=O)N[C@@H](CC(C)C)C(=O)N[C@H](C(=O)N[C@@H](CCCNC(=N)N)C(=O)N[C@@H](CCC(N)=O)C(=O)N[C@@H](CCCNC(=N)N)C(=O)N[C@@H](Cc1ccc(O)cc1)C(N)=O)[C@@H](C)O)C(C)C` [Compound 63, N{alpha-4}-(3-methylbutanoyl)-N{epsilon-7}-[2-(2-{2-[2-(2-{2-[(4S)-4-carboxy-4-(17-carboxyheptadecanamido)butanamido]ethoxy}ethoxy)acetamido]ethoxy}ethoxy)acetamido]-[4A,7K,9E,18Q,22V,26A,28Y,30W,31L]hPYY (4-36)], the pKi was 8.50.

With `CC[C@H](C)[C@H](NC(=O)[C@H](CCC(=O)O)NC(=O)[C@@H](NC(=O)[C@H](Cc1ccc(O)cc1)NC(=O)[C@H](Cc1ccc(O)cc1)NC(=O)[C@H](CCCNC(=N)N)NC(=O)[C@H](CCC(N)=O)NC(=O)[C@H](CC(C)C)NC(=O)[C@H](CCC(=O)O)NC(=O)[C@H](CCC(=O)O)NC(=O)[C@@H]1CCCN1C(=O)[C@H](CO)NC(=O)[C@H](C)NC(=O)[C@H](CC(=O)O)NC(=O)[C@H](CCC(=O)O)NC(=O)[C@H](CCC(=O)O)NC(=O)[C@@H]1CCCN1C(=O)[C@H](CCCCNC(=O)COCCOCCNC(=O)COCCOCCNC(=O)CC[C@H](NC(=O)CCCCCCCCCCCCCCCCC(=O)O)C(=O)O)NC(=O)[C@H](CCC(=O)O)NC(=O)[C@@H]1CCCN1C(=O)[C@H](C)NC(=O)CC(C)C)C(C)C)C(=O)N[C@@H](CCCNC(=N)N)C(=O)N[C@@H](Cc1c[nH]cn1)C(=O)N[C@@H](Cc1ccc(O)cc1)C(=O)N[C@@H](Cc1ccc(O)cc1)C(=O)N[C@@H](CC(N)=O)C(=O)N[C@@H](Cc1c[nH]c2ccccc12)C(=O)N[C@@H](CC(C)C)C(=O)N[C@H](C(=O)N[C@@H](CCCNC(=N)N)C(=O)N[C@@H](CCC(N)=O)C(=O)N[C@@H](CCCNC(=N)N)C(=O)N[C@@H](Cc1ccc(O)cc1)C(N)=O)[C@@H](C)O` [Compound 65, N{alpha-4}-(3-methylbutanoyl)-N{epsilon-7}-[2-(2-{2-[2-(2-{2-[(4S)-4-carboxy-4-(17-carboxyheptadecanamido)butanamido]ethoxy}ethoxy)acetamido]ethoxy}ethoxy)acetamido]-[4A,7K,9E,18Q,22V,23E,24I,28Y,30W,31L]hPYY (4-36)], the negative-log Ki (pKi) was 8.99.

As for `CC(C)CC(=O)N[C@@H](C)C(=O)N1CCC[C@H]1C(=O)N[C@@H](CCC(=O)O)C(=O)N[C@@H](CCCCNC(=O)COCCOCCNC(=O)COCCOCCNC(=O)CC[C@H](NC(=O)CCCCCCCCCCCCCCCCC(=O)O)C(=O)O)C(=O)N1CCC[C@H]1C(=O)N[C@@H](CCC(=O)O)C(=O)N[C@@H](CCC(=O)O)C(=O)N[C@@H](CC(=O)O)C(=O)N[C@@H](CO)C(=O)N[C@@H](C)C(=O)N1CCC[C@H]1C(=O)N[C@@H](CCC(=O)O)C(=O)N[C@@H](CCC(=O)O)C(=O)N[C@@H](CC(C)C)C(=O)N[C@@H](CCC(N)=O)C(=O)N[C@@H](CCCNC(=N)N)C(=O)N[C@@H](Cc1ccc(O)cc1)C(=O)N[C@@H](Cc1ccc(O)cc1)C(=O)N[C@H](C(=O)N[C@@H](CO)C(=O)N[C@@H](CC(C)C)C(=O)N[C@@H](CCCNC(=N)N)C(=O)N[C@@H](Cc1c[nH]cn1)C(=O)N[C@@H](Cc1ccc(O)cc1)C(=O)N[C@@H](Cc1ccc(O)cc1)C(=O)N[C@@H](CC(N)=O)C(=O)N[C@@H](Cc1c[nH]c2ccccc12)C(=O)N[C@@H](CC(C)C)C(=O)N[C@H](C(=O)N[C@@H](CCCNC(=N)N)C(=O)N[C@@H](CCC(N)=O)C(=O)N[C@@H](CCCNC(=N)N)C(=O)N[C@@H](Cc1ccc(O)cc1)C(N)=O)[C@@H](C)O)C(C)C` [Compound 67, N{alpha-4}-(3-methylbutanoyl)-N{epsilon-7}-[2-(2-{2-[2-(2-{2-[(4S)-4-carboxy-4-(17-carboxyheptadecanamido)butanamido]ethoxy}ethoxy)acetamido]ethoxy}ethoxy)acetamido]-[4A,7K,9E,12S,13A,18Q,22V,28Y,30W,31L]hPYY (4-36)], the negative-log Ki (pKi) is 8.36.

Consider `CC(C)CC(=O)N[C@@H](C)C(=O)N1CCC[C@H]1C(=O)N[C@@H](CCC(=O)O)C(=O)N[C@@H](CCCCNC(=O)COCCOCCNC(=O)COCCOCCNC(=O)CC[C@H](NC(=O)CCCCCCCCCCCCCCCCC(=O)O)C(=O)O)C(=O)N1CCC[C@H]1C(=O)N[C@@H](CCC(=O)O)C(=O)N[C@@H](CCC(=O)O)C(=O)N[C@@H](CCC(=O)O)C(=O)N[C@@H](C)C(=O)N[C@@H](CO)C(=O)N1CCC[C@H]1C(=O)N[C@@H](CCC(=O)O)C(=O)N[C@@H](CCC(=O)O)C(=O)N[C@@H](CC(C)C)C(=O)N[C@@H](CCC(N)=O)C(=O)N[C@@H](C)C(=O)N[C@@H](Cc1ccc(O)cc1)C(=O)N[C@@H](Cc1ccc(O)cc1)C(=O)N[C@H](C(=O)N[C@@H](CO)C(=O)N[C@@H](CC(C)C)C(=O)N[C@@H](CCCNC(=N)N)C(=O)N[C@@H](Cc1c[nH]cn1)C(=O)N[C@@H](Cc1ccc(O)cc1)C(=O)N[C@@H](Cc1ccc(O)cc1)C(=O)N[C@@H](CC(N)=O)C(=O)N[C@@H](Cc1c[nH]c2ccccc12)C(=O)N[C@@H](CC(C)C)C(=O)N[C@H](C(=O)N[C@@H](CCCNC(=N)N)C(=O)N[C@@H](CCC(N)=O)C(=O)N[C@@H](CCCNC(=N)N)C(=O)N[C@@H](Cc1ccc(O)cc1)C(N)=O)[C@@H](C)O)C(C)C` [Compound 68, N{alpha-4}-(3-methylbutanoyl)-N{epsilon-7}-[2-(2-{2-[2-(2-{2-[(4S)-4-carboxy-4-(17-carboxyheptadecanamido)butanamido]ethoxy}ethoxy)acetamido]ethoxy}ethoxy)acetamido]-[4A,7K,9E,11E,18Q,19A,22V,28Y,30W,31L]hPYY (4-36)] (Isovaleryl-APEK([AEEA-AEEA-γGlu-C18 diacid])PEEEASPEELQAYYVSLRHYYNWLTRQRY-NH2), for which the pKi was 8.07.

In the case of `CC(C)CC(=O)N[C@@H](C)C(=O)N1CCC[C@H]1C(=O)N[C@@H](CCC(=O)O)C(=O)N[C@@H](CCCCNC(=O)COCCOCCNC(=O)COCCOCCNC(=O)CC[C@H](NC(=O)CCCCCCCCCCCCCCCCC(=O)O)C(=O)O)C(=O)N1CCC[C@H]1C(=O)N[C@@H](CCC(=O)O)C(=O)N[C@@H](CCC(=O)O)C(=O)N[C@@H](CC(=O)O)C(=O)N[C@@H](CO)C(=O)N[C@@H](CO)C(=O)N[C@@H](C)C(=O)N[C@@H](CCC(=O)O)C(=O)N[C@@H](CCC(=O)O)C(=O)N[C@@H](CC(C)C)C(=O)N[C@@H](CCC(N)=O)C(=O)N[C@@H](CCCNC(=N)N)C(=O)N[C@@H](Cc1ccc(O)cc1)C(=O)N[C@@H](Cc1ccc(O)cc1)C(=O)N[C@H](C(=O)N[C@@H](CO)C(=O)N[C@@H](CC(C)C)C(=O)N[C@@H](CCCNC(=N)N)C(=O)N[C@@H](Cc1c[nH]cn1)C(=O)N[C@@H](Cc1ccc(O)cc1)C(=O)N[C@@H](Cc1ccc(O)cc1)C(=O)N[C@@H](CC(N)=O)C(=O)N[C@@H](Cc1c[nH]c2ccccc12)C(=O)N[C@@H](CC(C)C)C(=O)N[C@H](C(=O)N[C@@H](CCCNC(=N)N)C(=O)N[C@@H](CCC(N)=O)C(=O)N[C@@H](CCCNC(=N)N)C(=O)N[C@@H](Cc1ccc(O)cc1)C(N)=O)[C@@H](C)O)C(C)C` [Compound 69, N{alpha-4}-(3-methylbutanoyl)-N{epsilon-7}-[2-(2-{2-[2-(2-{2-[(4S)-4-carboxy-4-(17-carboxyheptadecanamido)butanamido]ethoxy}ethoxy)acetamido]ethoxy}ethoxy)acetamido]-[4A,7K,9E,12S,14A,18Q,22V,28Y,30W,31L]hPYY (4-36)], the pKi was 8.24.
